Measurements taken from patent US12156877B1, “Methods of treating conditions related to a thiamine deficiency, a thiamine-dependent enzyme, or an associated cofactor” (The Regents of the University of California, priority 2019, dated 2024).

Experiments:
[1] = system: mice on a thiamine-deficient diet
WKS mouse models = test: Body weight and disease onset of WKS mouse model (0 ppm thiamine and pyrithiamine injections) in normoxia versus hypoxia; assay type: in vivo, mice
Method: FIG. 3 depicts the body weight of Wernicke-Korsakoff (WKS) Animal Model (0 ppm thiamine and pyrithiamine injections) in normoxia versus hypoxia using the methods described herein.
Hypoxia and moderate hyperoxia exposure were tested in these mouse models of WK syndrome. Six groups of mice for each different oxygen exposure will be used—(no disease, moderate disease, extreme disease)×(with or without thiamine treatment starting day 10 of the disease model). […] This sample size should be sufficient to detect a 30% increase in survival with 80% power. Disease progression in these different conditions will be carefully monitored. Daily body weights from the beginning of treatment will be taken. Additionally, behavior was monitored on a weekly basis using rotarod tests, open field experiments and the Y-maze memory test. For 3 mice per group, T2-weighted MRI scans was performed once per week. This will allow the monitoring of the disease progression and reversal. For a separate set of 3 mice per group, mice were sacked, and neuropathology performed, staining for neuronal cell loss (using NeuN) or neuroinflammatory signatures (using antibodies against GFAP) similar to that performed in Jain et. al.
FIG. 3 depicts the results of WKS mouse models being treated at 21% O2 (normoxia) and 11% O2 (hypoxia) for a span of 20 days. […] Hypoxia began on Day 3 of the experiment.

[2] = system: mice with thiamine-deficiency; test: Symptoms caused by thiamine deficiency (blood lactate, grip strength, body temperature) under different oxygen tensions; assay type: in vivo
Excerpt: FIGS. 6A-6E depict the results of lowering FiO2 on the symptoms caused by thiamine deficiency. Blood lactate measured in mice housed under different oxygen tensions 21 and 35 days after the diets started. […] Muscle strength assessed by grip strength of mice administered with 17 ppm or 0 ppm thiamine for 21 days. Muscle strength is compromised in mice with thiamine-deficiency under 55% and 21% oxygen (FIG. 6C). […] Student's t-test * p<0.05, ** p<0.01, […]. While the present invention has been described with reference to the specific embodiments thereof, it should be understood by those skilled in the art that various changes may be made and equivalents may be substituted without departing from the true spirit and scope of the invention. In addition, many modifications may be made to adapt a particular situation, material, composition of matter, process, process step or steps, to the objective, spirit and scope of the present invention. All such modifications are intended to be within the scope of the claims appended hereto.

[3] = system: mouse models for Wernicke-Korsakoff syndrome; settings: 500 mg thiamine 3×/day; both models (thiamine-deficient diet, with or without pyrithiamine); cited from earlier work

**Q.** Which “onset of weight loss” value ([1]; 8% O2 (extreme hypoxia)) does the source give for `O=O` [O2, oxygen] here?
**A.** The value was “further delayed the onset of weight loss”.

**Q.** What about the “survival at 60 days after start of thiamine-deficient diet” value ([1]; 8% O2 (extreme hypoxia)) of the same compound?
**A.** The value was “some mice were still alive at 60 days”.

**Q.** And the survival time ([1]; 8% O2 (extreme hypoxia))?
**A.** The survival time was “extended the survival time”.

**Q.** What about the “extension of survival time” value ([1]; 11% O2, versus 21% O2 (median survival time 37 days)) of the same compound?
**A.** The value was “approximately 13 days”.

**Q.** What about the “rate of body weight loss” value ([1]; 11% O2, versus 21% O2 (weight loss began at 21 days)) of the same compound?
**A.** The value was “lost body weight at a slower rate”.

**Q.** What about the disease progression ([1]; 55% O2) of the same compound?
**A.** Its disease progression is “exacerbated the disease progression”.

**Q.** What about the “disease onset (physiological signs of WKS)” value (WKS mouse models; 11% O2 (hypoxia) begun on Day 3, span of 20 days, versus 21% O2 (normoxia)) of the same compound?
**A.** Its value is “prevented disease onset”.

**Q.** What about the “significant drop of body-weight at Day 14” value (WKS mouse models; 11% O2 (hypoxia), body-weight at 21% O2 dropped significantly at Day 14) of the same compound?
**A.** Its value is “did not”.

**Q.** And the body temperature ([2]; 11% O2, thiamine-deficient diet for 43 days, mice under normoxic air exhibit hypothermia)?
**A.** Its body temperature is “normal body temperatures”.

**Q.** What about the “muscle strength assessed by grip strength” value ([2]; 55% oxygen, 0 ppm thiamine for 21 days) of the same compound?
**A.** Its value is “compromised”.

**Q.** What about the blood lactate ([2]; 55% oxygen, day 21 and day 35 after the diets started, severe disease state) of the same compound?
**A.** The blood lactate was “lactic acidosis”.

**Q.** Which “disease progression in thiamine-deficiency models” value [3] does the source give for `Cc1ncc(C[n+]2csc(CCO)c2C)c(N)n1` [thiamine] here?
**A.** Its value is “can be reversed”.
